From patent publication US20200392107A1, “CYCLIC AMINE DERIVATIVE AND MEDICAL USE THEREOF” (Toray Industries, Inc., priority 2018, published 2020) come the findings set out here.

Assay [1] has as its target T1, RORγ-LBD (GST-fused ligand-binding domain of RORγ) / coactivator TRAP220/DRIP-2 (Homo sapiens, UniProt P51449).
T1 construct: purchased Invitrogen
T1 sequence (P51449 269-508 limits assumed): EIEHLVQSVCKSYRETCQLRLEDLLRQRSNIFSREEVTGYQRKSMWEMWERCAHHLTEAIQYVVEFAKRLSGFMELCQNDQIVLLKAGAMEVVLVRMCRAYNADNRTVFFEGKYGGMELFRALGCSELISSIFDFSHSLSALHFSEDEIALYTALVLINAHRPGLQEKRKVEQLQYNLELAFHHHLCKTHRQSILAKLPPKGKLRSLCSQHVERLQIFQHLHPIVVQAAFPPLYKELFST
Description: Inhibitory effect on RORγ-coactivator binding (LanthaScreen TR-FRET RORγ Coactivator Assay). The note with it: at 33 μmol/L of the test compound; read-out: RORγ-coactivator binding inhibition rate (%). The assay is classed as biochemical. On the procedure:
The inhibitory effect of the cyclic amine derivative (I) or a pharmacologically acceptable salt thereof on the binding between a ligand-binding domain of RORγ (hereinafter referred to as RORγ-LBD) and a coactivator was evaluated using Invitrogen's LanthaScreen™ TR-FRET Retinoid-Related Orphan Receptor (ROR) gamma Coactivator Assay kit utilizing time-resolved fluorescence energy transfer (TR-FRET).
A test compound was dissolved in DMSO and diluted with TR-FRET Coregulator Buffer D (Invitrogen) containing 5 mmol/L of DTT to have a final DMSO concentration of 1% before use. To each well of a 384-well black plate (Corning Inc.), 4 nmol/L of GST-fused RORγ-LBD (Invitrogen) diluted with the buffer mentioned above and the test compound were added. A well without addition of the test compound and without addition of GST-fused RORγ-LBD (background) and a well without addition of the test compound and with addition of GST-fused RORγ-LBD (control) were prepared. Next, 150 nmol/L of fluorescein-labeled TRAP220/DRIP-2 (Invitrogen) diluted with the buffer mentioned above and 32 nmol/L of terbium-labeled anti-GST antibody (Invitrogen) were added to each well. After incubating the plate at room temperature for 16 to 24 hours, the fluorescence at 495 nm and 520 nm when excited at 320 nm was measured for each well and the ratio (fluorescence value at 520 nm/fluorescence value at 495 nm) was calculated.
The fold change with addition of the test compound (ratio with addition of the test compound/ratio of the background), the fold change of the control (ratio of the control/ratio of the background), and the fold change of the background (ratio of the background/ratio of the background) were calculated, and then the inhibition rate of binding between RORγ-LBD and a coactivator (hereinafter referred to as RORγ-coactivator binding inhibition rate) (%) was calculated from Formula (1):
RORγ-coactivator binding inhibition rate (%)=(1−((Fold change with addition of the test compound)−(Fold change of the background))/((Fold change of the control)−(Fold change of the background)))×100 (1).
For orientation: In TR-FRET formats the signal depends on donor and acceptor labels being close together.

Assay [2] deals with IL-17 production in mouse splenocytes. As to the kind of experiment: Suppressive effect on IL-17 production by IL-23 stimulation in mouse splenocytes. Format: cell-based. The note with it: Splenocyte, 72 h, at 5 μmol/L of the test compound, human IL-23 10 ng/mL, cultured 3 days, read-out: IL-17 production inhibition rate (%). The procedure:
Using mouse splenocytes, the suppressive effect of the cyclic amine derivative (I) or a pharmacologically acceptable salt thereof on IL-17 production by IL-23 stimulation was evaluated by a partially modified method mentioned in The Journal of Biological Chemistry, 2003, Vol. 278, No. 3, p. 1910-1914.
A single cell suspension was prepared from the spleen of C57BL/6J mice (male or female, 6 to 30 weeks old) (Charles River Laboratories Japan, Inc. or CLEA Japan, Inc.) and splenocytes were prepared using Histopaque-1083 (Sigma-Aldrich Japan). The culture medium was used by adding 10% FBS (Gibco), 50 U/mL of penicillin-50 μg/mL of streptomycin (Gibco), 50 μmol/L of 2-mercaptoethanol (Gibco), and 100 U/mL of human IL-2 (Cell Science & Technology Institute, Inc.) to RPMI1640 medium (Gibco). A test compound was dissolved in DMSO and then diluted with the culture medium to have a final concentration of DMSO of 0.1% before use. Splenocytes (3×10^5 cells/well) prepared in the culture medium were seeded in wells of a 96-well flat-bottom plate (Corning Incorporated), the test compound and 10 ng/mL of human IL-23 (R & D systems, Inc.) were added thereto, and the cells were cultured at 37° C. under 5% CO2 for 3 days. A well without addition of human IL-23 and without addition of the test compound and a well with addition of human IL-23 and without addition of the test compound were prepared. After completion of the culture, the culture supernatant was collected and the IL-17 production amount in the supernatant was determined by ELISA method (R & D systems, Inc.).
The IL-17 production inhibition rate (%) was calculated from Formula (2).
IL-17 production inhibition rate (%)=(1−((IL-17 production amount with addition of IL-23 and with addition of the test compound)−(IL-17 production amount without addition of IL-23 and without addition of the test compound))/((IL-17 production amount with addition of IL-23 and without addition of the test compound)−(IL-17 production amount without addition of IL-23 and without addition of the test compound)))×100 (2).

As usually defined, the inhibition is the relative decrease from the control value, in per cent. Consider `CC(=O)N1CCCC[C@@H]1C(=O)Nc1ccc2c(c1)CCCN2Cc1ccc(C(F)(F)F)cc1` [Example 2, (R)-1-acetyl-N-(1-(4-(trifluoromethyl)benzyl)-1,2,3,4-tetrahy-droquinolin-6-yl)piperidine-2-carboxamide], for which the inhibition at 33 µM in assay [1] was 94.3%. In addition, in assay [2], the inhibition at 5 µM amounted to 98.4%.

`CC(=O)N1CCCC[C@@H]1C(=O)Nc1cc(Cl)c2c(c1)CCN(Cc1ccc(C(F)(F)F)cc1)C2` [Example 3, (R)-1-acetyl-N-(8-chloro-2-(4-(trifluoromethyl)benzyl)-1,2,3,4-tetrahydroisoquinolin-6-yl)piperidine-2-carboxamide]: the inhibition at 33 µM in assay [1] was found to be 99.5%. The inhibition at 5 µM in assay [2] was 99.7%.

As to `CC(=O)N1CCCC[C@@H]1C(=O)Nc1cc(Cl)c2c(c1)CCN2Cc1cccc(C(F)(F)F)c1` [Example 5, (R)-1-acetyl-N-(7-chloro-1-(3-(trifluoromethyl)benzyl)indolin-5-yl)piperidine-2-carboxamide], in assay [1], the inhibition at 33 µM worked out at 87.9%. Moreover, the inhibition at 5 µM in assay [2] is 87.5%.

In the case of `CC(=O)N1CCCC[C@@H]1C(=O)Nc1cc(Cl)c2c(c1)CCN2Cc1ccccc1C(F)(F)F` [Example 6, (R)-1-acetyl-N-(7-chloro-1-(2-(trifluoromethyl)benzyl)indolin-5-yl)piperidine-2-carboxamide], the inhibition at 33 µM in assay [1] was 85.2%. In addition, in assay [2], the inhibition at 5 µM is 91.6%.

Turning to `CC(=O)N1CCCC[C@@H]1C(=O)Nc1cc(Cl)c2c(c1)CCN2CCc1ccc(C(F)(F)F)cc1` [Example 7, (R)-1-acetyl-N-(7-chloro-1-(4-(trifluoromethyl)phenethyl)indolin-5-yl)piperidine-2-carboxamide], the inhibition at 33 µM in assay [1] worked out at 96%. Besides, the inhibition at 5 µM in assay [2] came to 98.6%.

As for `CC(=O)N1CCCC[C@@H]1C(=O)Nc1cc(Cl)c2c(c1)CCN2Cc1ccc(OC(F)(F)F)cc1` [Example 8, (R)-1-acetyl-N-(7-chloro-1-(4-(trifluoromethoxy)benzyl)in-dolin-5-yl)piperidine-2-carboxamide], the inhibition at 33 µM in assay [1] amounted to 99.4%. The inhibition at 5 µM in assay [2] was determined as 100%.

In the case of `CC(=O)N1CCCCC1C(=O)Nc1cc(Cl)c2c(c1)CCN2Cc1ccc(C(F)(F)F)cc1` (centres unmarked) [Example 10, 1-acetyl-N-(7-chloro-1-(4-(trifluoromethyl)benzyl)indolin-5-yl)piperidine-2-carboxamide], the inhibition at 33 µM in assay [1] turned out to be 99.8%. For the same compound, in assay [2], the inhibition at 5 µM turned out to be 99.5%.
